# Experimental data: patent publication US20260209152A1, “Substituted Hydroxystilbene Compounds and Derivatives, Synthesis and Uses Thereof” (Kynan Duke IP, LLC, priority 2019, published 2026)
# Values joined by “and” are separate entries in the source; they are usually repeats but may differ in a detail not shown here. Equal entries are not always repeated. Where two headings read alike, the source gives them in different places.
# Tests used:
# [1] = system: IL-8 release from IL-17A and TNFα-induced primary human keratinocytes; assay: Keratinocyte IL-8 release (assay number 1250); type: cell-based; settings: for EC50 / Emax: Homo sapiens, Keratinocyte; for Max Eff.: IL-8 (1250): highest effect as percentage of control maximum effect; for Emax: read-out: maximum efficacy, IL-8 release
# Method: Inhibition of IL-8 release from IL-17A and TNFα-induced primary human keratinocytes LEO Pharma Open Innovation assay number 1250 openinnovation.leo-pharma.com
# The inflammatory skin disease psoriasis is characterized by cytokines IL-17A and TNFα. In the present assay, primary human keratinocytes are stimulated with a mixture of these cytokines, and the release of IL-8 (also called CXCL8) is measured in the culture supernatant by proximity homogenous time-resolved fluorescence (HTRF).
# • Detach the cells as described above. • Resuspend pellet in 10 ml EpiLife Medium with HKGS Kit but without hydrocortisone • Filter the cells though a 37 µm strainer. • Count cells using a cell counter. • Seed Human Epidermal Keratinocytes, adult (HEKa) cells in 384-well view plates 3500 c/w/40 μL. Use cell media with supplement but without hydrocortisone as assay medium. • Place the plates with lids on in a humidity chamber with lid (24.5×24.5 cm box added H2O in the bottom). • Incubate plates over night at 37° C., 5% CO2/95% air.
# • Prepare compound-containing source plate, i.e. titrations in DMSO to be transferred to the assay plate. • Empty the assay plate, and re-add 25 μL assay medium. • Add 75 nL compounds and controls from the source plate to the assay plate (with cells). • Add 25 μL assay medium and incubate for 2 hours. • Add 25 μL stimulation mix in assay medium (recombinant human interleukin 17A and Tumor necrosis factor-alpha) to give a final concentration of 10 ng/mL of both cytokines. • Incubate plates at 37° C., 5% CO2/95% air for 3 days.
# • Remove plates from incubation and equilibrate to room temperature for 30 minutes. • Transfer 2 μL supernatant to white proxi 384-well plates for IL-8 detection. • Add 2 μL assay medium • Prepare IL-8 HTRF mix (according to manufactory protocol) and add 2 μL pr well. • Seal and incubate for 3 hours and read fluorescence in a plate reader.
# IL-8 concentration in the supernatant is measured using homogeneous time-resolved fluorescence resonance (TR-FRET). The assay is quantified by measuring fluorescence at 665 nm (proportional to IL8 concentration) and 620 nm (control). A ratio 665/620*1000 is calculated as a representation of the amount of IL-8 in the supernatant.
# [2] = system: human CD4-positive T-cells; assay: Cell viability in T-cell IL-2 & IL-4 assay (assay number 1299); type: cell-based; settings: Homo sapiens, CD4 positive
# Method: (§1) Then the level of secreted of IL-4 is measured in the culture supernatant using electrochemiluminescence (MSD kits, Meso Scale Discovery), IL-2 is measured by proximity homogenous time-resolved fluorescence (HTRF) and the amount of living cells is measured by addition of resazurin (PrestoBlue®) to allow identifying compounds that inhibit T-cell proliferation or viability.
# (§2) • Remove plates from incubation and equilibrate to room temperature for 30 minutes. • IL-4 concentration in 10 μL supernatant is measured using an MSD IL-4 384-plate kit (Custom made) according to manufacturer protocol. • IL-2 concentrations in the supernatant is measured by an IL-2 HTRF kit, CisBio, cat. No 62HIL02PEH. • Add 4 μL medium to white proxi 384-well plates • Add 1 μL supernatant. • Add 4 μL mHTRF mix (each diluted 1:300 in ⅔ reconstitution buffer and ⅓ assay medium). • Spin the plates for 1 minute at 170 g • Seal and incubate overnight and read fluorescence in a plate reader • The amount of viable cells is measured by PrestoBlue® reagent • Add 15 μL diluted PrestoBlue® reagent (resazurin) corresponding to 2.5 μL Prestoblue/well to the assay plate. • Incubate overnight at 37° C./5% CO2. The fluorescence in the wells is measured (Ex615/Em 535).
# (§3) The level of living cells in the wells is measured by the addition of PrestoBlue® and the conversion of Resazurin to Resorufin (fluorescent) in living cells is measured.
# (§4) The effect of the test compounds on viability/proliferation is normalized to the PrestoBlue signal in the negative control wells treated with a toxic compound, Terfenadine.
# [3] = as above; type: cell-based, human; settings: human, human CD4-positive T-cells
# Method: as §1, §2, §3, §4
# Kidney A-498 = assay: CellTiter Glo cell viability assay; type: cell-based, human
# How it was run: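 A498 human kidney cancer cells were seeded in 96-well plates in quadruplicate at 1.7*10^3 cells/well and exposed to serial dilutions of test compound. Viability was read with the Promega CellTiter Glo Luminescence assay on a Thermo Scientific Varioskan LUX plate reader. The half-maximal inhibitory concentration was obtained by nonlinear regression in GraphPad Prism 7.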
# [4] = inhibition of IL-8 release, IL-17A and TNFα-induced keratinocytes, read-out: Abs EC50: IL-8 (1250)
# [5] = cell viability in T-cell IL-2 & IL-4 assay, read-out: Abs EC50: Viab (1299)
# [6] = maximum reduction of cell viability in T-cell IL-2 & IL-4 assay, read-out: Max Eff.: Viab (1299)
# [7] = Homo sapiens, A498, 72 h, 3 Days of treatment, 18 2-fold dilutions 5-0.00003 μM, read-out: Average IC50
# [8] = Homo sapiens, A498, 72 h, Table 4: 3 Days of treatment, 18 2-fold dilutions 5-0.00003 μM, Average (1, 8) or single Exp A-D, read-out: IC50
# [9] = Homo sapiens, A498, A-498/HTB-44, 11 dilutions 3-0.00001 μM, Table 6, read-out: IC50
# [10] = Homo sapiens, A498, Table 5A: 11 dilutions 3-0.00001 μM, average of experiments, read-out: IC50 average
# [11] = read-out: EC50, inhibition of IL-8 release
# [12] = T-cell IL-2 & IL-4 assay, read-out: EC50, cell viability
# [13] = T-cell IL-2 & IL-4 assay, read-out: maximum reduction of cell viability
# [14] = Homo sapiens, A498, Table 5A: 11 dilutions 3-0.00001 μM, single experiments Exp E-K, read-out: IC50
SMILES,"EC50 [1, 4]",Max Eff.: IL-8 (1250) [1],"EC50 [2, 5]","cytotoxicity [3, 6]",IC50 (Kidney A-498; [7]),IC50 (Kidney A-498; [8]),IC50 (Kidney A-498; [9]),IC50 (Kidney A-498; [10]),"Fold IC50 (Kidney A-498; IC50 of 1 [KYN-001] vs 8 [KYN-119], 3 Days)","IC50 (Kidney A-498; Table 5A: 11 dilutions 3-0.00001 μM, average of experiments, read-out: IC50 average)","EC50 [1, 11]",Emax [1],"EC50 [2, 12]","cytotoxicity [3, 13]","reduction of IL-8 release, in words [1]",IC50 (Kidney A-498; [14]),"IC50 (Kidney A-498; Table 5A: 11 dilutions 3-0.00001 μM, single experiments Exp E-K, read-out: IC50)"
"COc1cc(/C=C/c2cc(O)cc(OC)c2CC=C(C)C)ccc1O [Compound 1, (E)-3-(4-hydroxy-3-methoxystyryl)-5-methoxy-4-(3-methylbut-2-en-1-yl)phenol]",80 nM,94%,5000 nM,35%,2810 nM,109 nM,1070 nM,1140 nM,,,,,,,,,
"COc1cc(/C=C/c2cc(O)cc(OC)c2CC=C(C)C)ccc1NC=O [Compound 27, (E)-N-(4-(5-hydroxy-3-methoxy-2-(3-methylbut-2-en-1-yl)styryl)-2-methoxyphenyl)formamide]",46 nM,75%,4350 nM,,,,642 nM,728 nM,,,46 nM,75%,4350 nM,52%,,,
"COc1cc(/C=C/c2cc(O)cc(OC)c2CC=C(C)C)ccc1NC(=O)CN [Compound 31, (E)-2-amino-N-(4-(5-hydroxy-3-methoxy-2-(3-methylbut-2-en-1-yl)styryl)-2-methoxyphenyl)acetamide]",364 nM,105%,5000 nM,19%,,,,,,,,,,,,> 3000 nM,

# Now from value to molecule, other results behind:
"EC50 [1, 4]",SMILES,Max Eff.: IL-8 (1250) [1],"EC50 [2, 5]","cytotoxicity [3, 6]",IC50 (Kidney A-498; [7]),IC50 (Kidney A-498; [8]),IC50 (Kidney A-498; [9]),IC50 (Kidney A-498; [10]),"Fold IC50 (Kidney A-498; IC50 of 1 [KYN-001] vs 8 [KYN-119], 3 Days)","IC50 (Kidney A-498; Table 5A: 11 dilutions 3-0.00001 μM, average of experiments, read-out: IC50 average)","EC50 [1, 11]",Emax [1],"EC50 [2, 12]","cytotoxicity [3, 13]","reduction of IL-8 release, in words [1]",IC50 (Kidney A-498; [14]),"IC50 (Kidney A-498; Table 5A: 11 dilutions 3-0.00001 μM, single experiments Exp E-K, read-out: IC50)"
37 nM,"CCOc1cc(O)cc(/C=C/c2ccc(O)c(OC)c2)c1CC=C(C)C [Compound 8, (E)-3-Ethoxy-5-(4-hydroxy-3-methoxystyryl)-4-(3-methylbut-2-en-1-yl)phenol]",107%,5000 nM,46%,329 nM,10.3 nM,401 nM,360 nM,8.5,430 nM,,,,,,,
321 nM,"CCOc1cc(O)cc(/C=C/c2ccc(O)c(O)c2)c1CC=C(C)C [Compound 20, (E)-4-(3-Ethoxy-5-hydroxy-2-(3-methylbut-2-en-1-yl)styryl)benzene-1,2-diol]",93%,5000 nM,15%,,,620 nM,,,,,,,,,,
44 nM,"CCOc1cc(O)cc(/C=C/c2ccc(NC=O)c(OC)c2)c1CC=C(C)C [Compound 28, (E)-N-(4-(3-Ethoxy-5-hydroxy-2-(3-methylbut-2-en-1-yl)styryl)-2-methoxyphenyl)formamide]",85%,2360 nM,,,,198 nM,,,,44 nM,85%,2360 nM,60%,medium potency reduction of IL-8 release,100 to 1000 nM,180 nM and 181 nM
2950 nM,"CCOc1cc(O)cc(/C=C/c2ccc(NC(=O)C(=O)O)c(OC)c2)c1CC=C(C)C [Compound 35, (E)-2-((4-(3-Ethoxy-5-hydroxy-2-(3-methylbut-2-en-1-yl)styryl)-2-methoxyphenyl)amino)-2-oxoacetic acid]",77%,5000 nM,7%,,,,,,,,,,,,> 3000 nM,
